Experimental data taken from ChEMBL document CHEMBL1201862, “PubChem BioAssay data set” (2004).
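Where inhibition never reached the appropriate level, the endpoint shown equals the highest concentration tested. Otherwise, values were interpolated linearly from a five-concentration, 48-hour dose response in 96-well plates. The concentration for 50% growth inhibition is given as GI50.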 Activity calls are given as the source filed them. Cut-off read from the data, not from the text of the source: active = GI50 up to about 1.1 µM and inactive = higher.

What was measured:
Test in all cases: NCI anticancer screen, dose series, 48 h
[1] = system: 786-0
[2] = system: CCRF-CEM
[3] = system: HL-60
[4] = system: HOP-62
[5] = system: IGROV-1
[6] = system: K562
[7] = system: Malme-3M
[8] = system: NCI-H23
[9] = system: OVCAR-3
[10] = system: OVCAR-8
[11] = system: RPMI-8226
[12] = system: RXF 393
[13] = system: SF-268
[14] = system: SK-MEL-5
[15] = system: SN12C
[16] = system: SNB-19
[17] = system: SR
[18] = system: UACC-62
[19] = system: SNB-75

Structure (SMILES)	GI50 [1]	GI50 [2]	GI50 [3]	GI50 [4]	GI50 [5]	GI50 [6]	GI50 [7]	GI50 [8]	GI50 [9]	GI50 [10]	GI50 [11]	GI50 [12]	GI50 [13]	GI50 [14]	GI50 [15]	GI50 [16]	GI50 [17]	GI50 [18]	GI50 [19]
CCC1=CC2CN3Cn4c(c(COCc5c6n(c7ccccc57)CN5CC7C=C(CC)C5C6(C(=O)OC)C7)c5ccccc54)C(C(=O)OC)(C2)C13	> 100 µM (inactive)	> 100 µM (inactive)	> 100 µM (inactive)	> 100 µM (inactive)	> 100 µM (inactive)	> 100 µM (inactive)	> 100 µM (inactive)	> 100 µM (inactive)	> 100 µM (inactive)	> 100 µM (inactive)	> 100 µM (inactive)	> 100 µM (inactive)	66.8 µM (inactive)	> 100 µM (inactive)	> 100 µM (inactive)	> 100 µM (inactive)	> 100 µM (inactive)	> 100 µM (inactive)	
Nc1ccc(C(=O)NN2C(=O)C(Cl)C2c2ccc([N+](=O)[O-])cc2)cc1 (stereo not drawn)	3.87 µM (inactive)	3.54 µM (inactive)	1.92 µM (inactive)	11 µM (inactive)	5.31 µM (inactive)	9.75 µM (inactive)	12.1 µM (inactive)	7 µM (inactive)	3.71 µM (inactive)	14.6 µM (inactive)	15.4 µM (inactive)		1.99 µM (inactive)	15.5 µM (inactive)	14.8 µM (inactive)	13.1 µM (inactive)		8.59 µM (inactive)	10.2 µM (inactive)
[O-][S+]1Nc2c(Cl)cc(Cl)c3c(Cl)cc(Cl)c(c23)N1	18.5 µM (inactive)	31.6 µM (inactive)	34.2 µM (inactive)		58.5 µM (inactive)	41.5 µM (inactive)	43.8 µM (inactive)	29.1 µM (inactive)	30.6 µM (inactive)	32.4 µM (inactive)	37.8 µM (inactive)	21.9 µM (inactive)	34.6 µM (inactive)	37.8 µM (inactive)	34.6 µM (inactive)	40.3 µM (inactive)		22.3 µM (inactive)	26.1 µM (inactive)
COc1cc(Cl)c2c3c(c(C(C)=O)oc13)CCC2	> 100 µM (inactive)	> 100 µM (inactive)	> 100 µM (inactive)	> 100 µM (inactive)	> 100 µM (inactive)	> 100 µM (inactive)		> 100 µM (inactive)	> 100 µM (inactive)	> 100 µM (inactive)	86.9 µM (inactive)	85.1 µM (inactive)		> 100 µM (inactive)	> 100 µM (inactive)	> 100 µM (inactive)		> 100 µM (inactive)	> 100 µM (inactive)
CN(C)c1ccc(C(C=C2c3ccccc3Sc3ccccc32)=C(C#N)C#N)cc1	92.3 µM (inactive)	> 100 µM (inactive)	> 100 µM (inactive)	93.8 µM (inactive)	> 100 µM (inactive)	5.65 µM (inactive)	> 100 µM (inactive)	> 100 µM (inactive)	45.7 µM (inactive)	94.8 µM (inactive)	> 100 µM (inactive)	29 µM (inactive)	> 100 µM (inactive)	> 100 µM (inactive)	> 100 µM (inactive)	83.4 µM (inactive)		57.4 µM (inactive)	17.1 µM (inactive)
CCCc1c2c([nH]c(=O)c1C)C(=O)c1[nH]c(=O)c(C)c(CCC)c1C2=O	25.1 µM (inactive)	21.7 µM (inactive)	3.65 µM (inactive)	> 100 µM (inactive)	23.6 µM (inactive)	17.4 µM (inactive)	3.73 µM (inactive)	23.2 µM (inactive)	1.46 µM (inactive)	4.47 µM (inactive)		19.4 µM (inactive)	23 µM (inactive)	3.29 µM (inactive)	3.64 µM (inactive)	18.7 µM (inactive)	5.56 µM (inactive)		22.6 µM (inactive)
COc1cc(/C=C\c2ccc(Br)cc2)cc(OC)c1OC	0.00043 µM (active)	0.000352 µM (active)	0.000318 µM (active)	0.01 µM (active)	0.0124 µM (active)	0.000386 µM (active)	0.0024 µM (active)	0.000904 µM (active)	0.000341 µM (active)	0.00161 µM (active)	0.000582 µM (active)		0.000792 µM (active)	0.000527 µM (active)	0.00168 µM (active)	0.0057 µM (active)	0.01 µM (active)	0.000404 µM (active)	0.000422 µM (active)
Nc1cccc2c1C(=O)c1cccc(N)c1C2=O	> 100 µM (inactive)	> 100 µM (inactive)		> 100 µM (inactive)	> 100 µM (inactive)	> 100 µM (inactive)	> 100 µM (inactive)	> 100 µM (inactive)	> 100 µM (inactive)	> 100 µM (inactive)	> 100 µM (inactive)	46.3 µM (inactive)	> 100 µM (inactive)	> 100 µM (inactive)	> 100 µM (inactive)	> 100 µM (inactive)		> 100 µM (inactive)	> 100 µM (inactive)
